Reference: patent US7915448B2, “Substituted sulfonylaminoarylmethyl cyclopropanecarboxamide as VR1 receptor antagonists” (Pfizer Inc., priority 2005, dated 2011)

Experiments:
human VR1 receptors = target: T1, human VR1 receptors (Homo sapiens, UniProt Q8NER1); assay: Human VR1 antagonist assay (Ca2+ imaging); type: cell-based; conditions: cells expressing human VR1, fura-2 Ca2+ imaging, FDSS 6000; capsaicin (300 nM) or acid (pH5.8) stimulation, table does not say which
T1 construct: host or cells: cells highly expressing human VR1; cell type not specified
Procedure, shortened: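 Human VR1-expressing cells loaded with 5 μM fura-2/AM for 1 h, resuspended at 3.75×10^5 cells/ml and preincubated 15 min at room temperature in the dark with compound. Stimulation by 300 nM capsaicin in KRH buffer pH 7.3, or by acid (HBSS/MES, final pH 5.8) from HBSS-HEPES pH 7.4; fluorescence (ex 340/380 nm, em 510-520 nm) monitored from 1 min before addition for 5 min.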

[1] = Half-life in Human Liver Microsomes (HLM); conditions: human, human liver microsomes (HL101), pH 7.4
Procedure: (§1) Test compounds (1 μM) were incubated with 3.3 mM MgCl2 and 0.78 mg/mL HLM (HL101) in 100 mM potassium phosphate buffer (pH 7.4) at 37° C. on the 96-deep well plate. The reaction mixture was split into two groups, a non-P450 and a P450 group. NADPH was only added to the reaction mixture of the P450 group. An aliquot of samples of P450 group was collected at 0, 10, 30, and 60 min time point, where 0 min time point indicated the time when NADPH was added into the reaction mixture of P450 group. An aliquot of samples of non-P450 group was collected at −10 and 65 min time point. Collected aliquots were extracted with acetonitrile solution containing an internal standard. The precipitated protein was spun down in centrifuge (2000 rpm, 15 min). The compound concentration in supernatant was measured by LC/MS/MS system.
(§2) The half-life value was obtained by plotting the natural logarithm of the peak area ratio of compounds/internal standard versus time. The slope of the line of best fit through the points yields the rate of metabolism (k).

[2] = human, microsomes, pH 7.4
Procedure: as §1, §2

T1 sequence (Q8NER1 whole entry): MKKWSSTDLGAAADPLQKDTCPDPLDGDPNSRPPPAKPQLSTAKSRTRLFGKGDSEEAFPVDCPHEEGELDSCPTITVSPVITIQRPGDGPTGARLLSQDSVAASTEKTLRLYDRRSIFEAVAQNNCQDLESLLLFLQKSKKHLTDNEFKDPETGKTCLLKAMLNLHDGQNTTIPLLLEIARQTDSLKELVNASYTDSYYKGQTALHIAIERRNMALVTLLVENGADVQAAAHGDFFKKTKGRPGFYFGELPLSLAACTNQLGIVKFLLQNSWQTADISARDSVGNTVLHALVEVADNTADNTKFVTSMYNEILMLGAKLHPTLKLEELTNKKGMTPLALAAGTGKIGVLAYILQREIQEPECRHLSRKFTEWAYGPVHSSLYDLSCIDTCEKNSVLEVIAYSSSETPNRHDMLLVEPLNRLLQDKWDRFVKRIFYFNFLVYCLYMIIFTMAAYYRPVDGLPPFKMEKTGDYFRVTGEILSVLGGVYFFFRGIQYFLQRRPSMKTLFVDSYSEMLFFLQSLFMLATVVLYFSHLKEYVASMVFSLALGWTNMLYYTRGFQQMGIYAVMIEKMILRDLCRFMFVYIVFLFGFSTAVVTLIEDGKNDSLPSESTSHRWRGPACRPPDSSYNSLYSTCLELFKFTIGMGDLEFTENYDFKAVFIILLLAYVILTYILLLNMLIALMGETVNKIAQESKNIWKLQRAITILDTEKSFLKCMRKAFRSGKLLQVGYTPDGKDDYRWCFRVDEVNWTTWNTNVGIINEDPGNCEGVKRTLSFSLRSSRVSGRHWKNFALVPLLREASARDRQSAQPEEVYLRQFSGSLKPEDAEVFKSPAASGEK

IC50 (human VR1 receptors)	half-life at 1 μM [1]	T1/2 [2]	Compound
0.48 nM	15.8 min		Cc1cc([C@@H](C)NC(=O)C2CC2(C)c2cc(F)c(C(C)(C)C(F)(F)F)c(F)c2)ccc1NS(C)(=O)=O (single isomer, unassigned) [Example 71]
0.76 nM		>120 min	C[C@@H](NC(=O)C1CC1(C)c1ccc(C(F)(F)F)c(F)c1)c1cc(F)c(NS(C)(=O)=O)c(F)c1 (stereo partly drawn) [Example 73, N-((1R)-1-{3,5-Difluoro-4-[(methylsulfonyl)amino]phenyl}ethyl)-2-[3-fluoro-4-(trifluoromethyl)phenyl]-2-methylcyclooropanecarboxamide]
0.934 nM	10.8 min		CCc1cc([C@@H](C)NC(=O)[C@H]2C[C@]2(C)c2ccc(C(F)(F)F)cc2)ccc1NS(C)(=O)=O [Example 32, (1S,2S)-N-((1R)-1-{3-Ethyl-4-[(methylsulfonyl)amino]phenyl}ethyl)-2-methyl-2-[4-(trifluoromethyl)phenyl]cyclopropanecarboxamide]
234 nM	96 min		Cc1nc([C@@H](C)NC(=O)C2CC2(C)c2ccc(C(F)(F)F)cc2)ccc1NS(C)(=O)=O (stereo partly shown) [Example 54]
297 nM	42 min		Cc1nc([C@@H](C)NC(=O)C2CC2c2ccc(C(C)(C)C)cc2)ccc1NS(C)(=O)=O (single isomer, unassigned) [Example 55]
15.6 nM	5 min		Cc1cc([C@@H](C)NC(=O)C2CC2c2ccc(C(C)(C)C)nc2N2CCCC2)ccc1NS(C)(=O)=O (stereo partly drawn) [Example 51, 2-(6-tert-Butyl-2-pyrrolidin-1-ylpyridin-3-yl)-N-((1R)-1-{3-methyl-4-[(methylsulfonyl)amino]phenyl}ethyl)cyclopropanecarboxamide]
15 nM		33 min	Cc1cc([C@@H](C)NC(=O)C2CC2c2ccc(C(C)(C)C)cc2)ccc1NS(C)(=O)=O (stereo partly shown) [Example 7, 2-(4-tert-Butylphenyl)-N-((1 FR)-1-{3-methyl-4-[(methylsulfonyl)amino]phenyl}ethyl)cyclopropanecarboxamide]
62 nM	18 min		Cc1cc([C@@H](C)NC(=O)C2CC2c2ccc(C(C)(C)C)cc2CO)ccc1NS(C)(=O)=O (stereo partly drawn) [Example 68, 2-[4-tert-Butyl-2-(hydroxymethyl)phenyl]-N-((1R)-1-{3-methyl-4-[(methylsulfonyl)amino]phenyl}ethyl)cyclopropanecarboxamide]
30.5 nM	91 min		Cc1cc([C@@H](C)NC(=O)C2CC2(C)c2ccc(C(F)(F)F)nc2)ccc1NS(C)(=O)=O (single isomer, unassigned) [Example 57]
190 nM	9 min		Cc1cc(CNC(=O)C2CC2c2ccc(C(C)(C)C)c(F)c2)ccc1NS(C)(=O)=O (stereo not shown) [Example 4, 2-(4-tert-Butyl-3-fluorophenyl)-N-{3-methyl-4-[(methylsulfonyl)amino]benzyl}cyclopropanecarboxamide]
197 nM	41 min		Cc1cc([C@@H](C)NC(=O)[C@H]2C[C@]2(C)c2ccc(C(C)(C)C(F)(F)F)cc2)ncc1NS(C)(=O)=O [Example 37, 2-Methyl-N-((1R)-1-{4-methyl-5-[(methylsulfonyl)amino]pyridin-2-yl}ethyl)-2-[4-(2,2,2-trifluoro-1,1-dimethylethyl)phenyl]cyclopropanecarboxamide]
203 nM	> 120 min		Cc1nc([C@@H](C)NC(=O)[C@H]2C[C@]2(C)c2ccc(C(F)(F)F)cc2)ccc1NS(C)(=O)=O [Example 14, (1S,2S)-2-Methyl-N-((1R)-1-{6-methyl-5-[(methylsulfonyl)amino]pyridin-2-yl}ethyl)-2-[4-(trifluoromethyl)phenyl]cyclopropanecarboxamide]
78.3 nM	38 min		Cc1cc([C@@H](C)NC(=O)C2CC2(C)c2ccc(S(=O)(=O)C(F)(F)F)cc2)ccc1NS(C)(=O)=O (stereo partly drawn) [Example 26, 2-Methyl-N-((1R)-1-{3-methyl-4-[(methylsulfonyl)amino]phenyl}ethyl)-2-{4-[(trifluoromethyl)sulfonyl]phenyl}cyclopropanecarboxamide]
1.2 nM	37 min		C[C@@H](NC(=O)[C@H]1C[C@]1(C)c1ccc(C(F)(F)F)cc1)c1ccc(NS(C)(=O)=O)c(CO)c1 [Example 22, (1S,2S)-N-((1R)-1-{3-(Hydroxymethyl)-4-[(methylsulfonyl)amino]phenyl}ethyl)-2-methyl-2-[4 (trifluoromethyl)phenyl]cyclopropanecarboxamide]
3.01 nM		117 min	N-((1R)-1-{3,5-Difluoro-4-[(methylsulfonyl)amino]phenyl}ethyl)-2-[3,5-difluoro-4-(2,2,2-trifluoro-1-dimethylethyl)phenyl]-2-methylcyclopropanecarboxamide [Example 80]
4.62 nM	14 min		COC1(c2ccc(C(C)(C)C)cc2)CC1C(=O)N[C@H](C)c1ccc(NS(C)(=O)=O)c(C)c1 (stereo partly drawn) [Example 64, 2-[4-tert-Butylphenyl]-N-((1R)-1-{3-methyl-4-[(methylsulfonyl)amino]phenyl}ethyl)-2-(methyloxy)cyclopropanecarboxamide]
40 nM	5 min		Cc1cc(CNC(=O)C2CC2(C)c2ccc(C(C)(C)C)cc2)ccc1NS(C)(=O)=O (stereo not shown) [Example 5, 2-(4-tert-Butylphenyl)-2-methyl-N-{3-methyl-4-[(methylsulfonyl)amino]benzyl}cyclopropanecarboxamide]
11.2 nM	32 min		Cc1cc([C@@H](C)NC(=O)C2CC2c2ccc(C(C)(C)C)c(F)c2)ccc1NS(C)(=O)=O (stereo partly drawn) [Example 2, 2-(4-tert-Butyl-3-fluorophenyl)-N-((1R)-1-{3-methyl-4-[(methylsulfonyl)amino]phenyl}ethyl)cyclopropanecarboxamide]
0.421 nM	34 min		Cc1cc([C@@H](C)NC(=O)C2CC2(C)c2ccc(C(F)(F)F)c(F)c2)ccc1NS(C)(=O)=O (stereo partly drawn) [Example 66, 2-[3-Fluoro-4-(trifluoromethyl)phenyl]-2-methyl-N-((1R)-1-{3-methyl-4-[(methylsulfonyl)amino]phenyl}ethyl)cyclopropanecarboxamide]
192 nM	> 120 min		CC[C@@H](NC(=O)[C@H]1C[C@]1(C)c1ccc(C(F)(F)F)cc1)c1ccc(NS(C)(=O)=O)cc1 [Example 31, (1S,2S)-2-Methyl-N-((1R)-1-{4-[(methylsulfonyl)amino]phenyl}propyl)-2-[4-(trifluoromethyl)phenyl]cyclopropanecarboxamide]
